Measurements: publication PMC6470589, “Contribution of Molecular Structure to Self-Assembling and Biological Properties of Bifunctional Lipid-Like 4-(N-Alkylpyridinium)-1,4-Dihydropyridines” (Pharmaceutics, 2019)
Where two headings read alike, the source gives them in different places.

Experiments:
[1] = Basal cytotoxicity test (neutral red uptake) with estimation of LD50 from IC50; assay type: cell-based, mouse; settings: mouse, NIH 3T3 fibroblast cells
Protocol: The neutral red uptake (NRU) assay was performed according to the standard protocol of Stokes modified by NICEATM-ECVAM validation study. The NRU cytotoxicity assay procedure was based on the ability of viable cells to incorporate and bind neutral red, which is a supravital dye.
NIH 3T3 (Mouse Swiss Albino embryo fibroblast) cells (9000 cells/well) were placed into 96-well plates for 24 h in DMEM medium containing 5% fetal bovine serum (FBS). Then, they were exposed to the test compound over a range of seven concentrations (1000 μg/mL, 316 μg/mL, 100 μg/mL, 31 μg/mL, 10 μg/mL, 3.0 μg/mL, and 1.0 μg/mL) for 24 h. Untreated cells were used as a control. After 24 h, the medium was removed from all plates. Then, 250 μL of neutral red (NR) solution was added (0.05 mg/mL NR in DMEM 24 h pre-incubated at 37 °C and then filtered before use through a 0.22-µm syringe filter). Plates were incubated for 3 h, and then, cells were washed three times with phosphate buffered saline (PBS). The dye within viable cells was released by extraction with a mixture of acetic acid, ethanol, and water (1:50:49). The absorbance of neutral red was measured using a spectrophotometer multiplate reader Infinite M1000 (Tecan Austria GmbH, Salzburg, Austria) at 540 nm. The optical density (OD) was calculated using the formula: OD (treated cells) × 100/OD (control cells). The IC50 values were calculated using the program Graph Pad Prism® 3.0.
Data from the in vitro tests were used for estimating the starting dose for acute oral systemic toxicity tests in rodent. The in vivo starting dose is an estimated LD50 value that is calculated by inserting the in vitro IC50 value into a regression formula: log LD50 (mM/kg) = 0.439 log IC50 (mM) + 0.621 [29]. The value is recalculated to mg/kg, and compounds are evaluated in accordance with four toxicity categories: category 1: LD50 ≤ 5 mg/kg (highly toxic); category 2: 5 < LD50 ≤ 50 mg/kg (moderately toxic); category 3: 50 < LD50 ≤ 300 mg/kg (slightly toxic); category 4: 300 < LD50 ≤ 2000 mg/kg (practically non-toxic). Using an alternative in vitro method enables comparing the possible toxicity of new compounds and selecting compounds for further study, which will vastly reduce the number of animal experiments.

[2] = MTT cytotoxicity assay on HT-1080 tumor cells, 72 h; assay type: cell-based, human; settings: human, HT-1080 fibrosarcoma cells
Protocol: Tumor cell lines HT-1080 (human connective tissue fibrosarcoma) and MH-22A (mouse hepatocarcinoma) were used. All of the cells were obtained from the American Type Culture Collection ((ATCC,) Rockville, MD, USA). HT-1080 and MH-22A cells (4 × 10^4 cell/mL) were seeded in 96-well plates in Dulbecco’s modified Eagle’s medium (DMEM) containing 10% fetal bovine serum and cultivated for 72 h at 37 °C, 5% CO2 by exposure to different compounds concentrations (100 μg/mL, 25 μg/mL, 6.25 μg/mL, and 1.56 μg/mL). Cell viability was measured using 3-(4,5-dimethylthiazol-2-yl)-2,5-diphenyl-tetrazolium bromide (MTT) assay. In brief, after incubating with compounds, the culture medium was removed and fresh medium with 0.2 mg/mL MTT was added in each well of the plate. After incubation (3 h, 37 °C, 5% CO2), the medium with MTT was removed, and 200 μL of DMSO was added at once to each sample. The samples were tested at 540 nm on a Tecan multiplate reader Infinite1000 (Tecan Austria GmbH, Salzburg, Austria). The IC50 was calculated using the program Graph Pad Prism® 3.0.

Micrococcus luteus = test: Toxicity screen, serial dilution-spot test; assay type: cell-based; settings: gram positive; 24 h exposure in DI water, 28 °C; 0.0001 = no colonies at 0.001 mM;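 note: last dilution that did not fully inhibit growth with colonies still present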
Protocol: (§1) An estimation of the toxicity of 4-(N-alkylpyridinium)-1,4-DHP derivatives 3, 6, 7, and 9–11 was performed using six prokaryotic (bacteria) and one eukaryotic (yeast) microorganism species according to the procedure elaborated by Suppi et al.. The microorganisms used in the study and their origin were: Bacillus subtilis subsp. spizizenii (ATCC® 6633™*, Microbiologics®, St Cloud, MN, USA), Escherichia coli (ATCC® 8739, Microbiologics®), Klebsiella pneumoniae (Latvian Microorganisms strain collection, LMKK, strain number 535, Riga, Latvia), Micrococcus luteus (LMKK, No. 25), Pseudomonas aeruginosa (NCTC 12924, Biosciences Ltd., Dublin, Ireland), Proteus mirabilis (LMKK, No 590), and Saccharomyces cerevisiae, CEN.PK2 strain [32].
(§2) Bacteria and yeast cultures were cultivated until their exponential growth phase (optical density max 1); then, 100 µL of cell suspension was taken, washed in deionised (DI) water, and added to serially diluted samples of corresponding 4-(N-alkylpyridinium)-1,4-DHPs in DI water. All 1,4-DHPs were tested in five serially diluted concentrations (10 mM, 1 mM, 0.1 mM, 0.01 mM, and 0.001 mM). Test organisms were exposed to 1,4-DHP derivatives in DI water on 96-well microplates (Corning, Corning, NY, USA) at 28 °C for 24 h without shaking in the dark. Then, a 5 µL sample was taken from each well and spotted on yeast extract, bactopeptone, dextrose broth (YPD) (yeast extract 1%, bactopeptone 2%, glucose 2% and agar 2%) plates to test the growth of yeasts and lysogeny broth (LB) (yeast extract 0.5%, bactopeptone 1%, NaCl 0.5% and agar 2%) to test the growth for bacteria. Plates were left in 30 °C for 24 h, and assessed for microbial growth.
(§3) If there were no colonies after incubation with 1,4-DHPs in the last concentration of (0.001 mM), then their boundary concentration was set to 0.0001 mM or 0.1 µM.

[3] = test system: Saccharomyces cerevisiae, CEN.PK2 strain; test: Toxicity screen, serial dilution-spot test; assay type: cell-based; settings: yeast; 24 h exposure in DI water, 28 °C; 0.0001 = no colonies at 0.001 mM;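 note: last dilution that did not fully inhibit growth with colonies still present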
Protocol: as §1, §2, §3

Escherichia coli = test: Toxicity screen, serial dilution-spot test; assay type: cell-based; settings: gram negative; 24 h exposure in DI water, 28 °C; 0.0001 = no colonies at 0.001 mM;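 note: last dilution that did not fully inhibit growth with colonies still present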
Protocol: as §1, §2, §3

[4] = test system: Bacillus subtilis subsp. spizizenii; test: Toxicity screen, serial dilution-spot test; assay type: cell-based; settings: gram positive; 24 h exposure in DI water, 28 °C; 0.0001 = no colonies at 0.001 mM;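 note: last dilution that did not fully inhibit growth with colonies still present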
Protocol: as §1, §2, §3

Proteus mirabilis = test: Toxicity screen, serial dilution-spot test; assay type: cell-based; settings: gram negative; 24 h exposure in DI water, 28 °C; 0.0001 = no colonies at 0.001 mM;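 note: last dilution that did not fully inhibit growth with colonies still present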
Protocol: as §1, §2, §3

Pseudomonas aeruginosa = test: Toxicity screen, serial dilution-spot test; assay type: cell-based; settings: gram negative; 24 h exposure in DI water, 28 °C; 0.0001 = no colonies at 0.001 mM;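 note: last dilution that did not fully inhibit growth with colonies still present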
Protocol: as §1, §2, §3

Klebsiella pneumoniae = test: Toxicity screen, serial dilution-spot test; assay type: cell-based; settings: gram negative; 24 h exposure in DI water, 28 °C; 0.0001 = no colonies at 0.001 mM;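 note: last dilution that did not fully inhibit growth with colonies still present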
Protocol: as §1, §2, §3

[5] = test system: neuroblastoma SH-SY5Y cell line; parameters: method as in doi:10.1016/j.crci.2013.07.003; settings: read-out: Calcium antagonistic properties, IC50, SH-SY5Y; cited from earlier work
[6] = category by estimated LD50 (mg/kg), read-out: Toxicity category from estimated LD50
[7] = MTT, 72 h, ne = no effect in the tested concentration (up to 100 μg/mL), read-out: Cytotoxicity IC50, HT-1080

C#CCOC(=O)C1=C(C)NC(C)=C(C(=O)OCC#C)C1c1ccc[n+](CC)c1 [Compound 7]
LD50 at 24 h ([1]; calculated from NIH 3T3 NRU IC50, recalculated to mg/kg, read-out: Basal Cytotoxicity Estimated LD50): > 2700 mg/kg
IC50 at 72 h ([2]; as printed in the supplementary toxicity table, read-out: Cytotoxicity, IC50, HT-1080 (supplementary table, for comparison)): 1000 µM
Boundary concentration, M. luteus (Micrococcus luteus): 0.001 mM
Boundary concentration, S. cerevisiae [3]: 1 mM
Boundary concentration, E. coli (Escherichia coli): 1 mM
Boundary concentration, B. subtilis [4]: 0.1 mM
Boundary concentration, P. mirabilis (Proteus mirabilis): 0.1 mM
Boundary concentration, P. aeruginosa (Pseudomonas aeruginosa): 0.01 mM
Boundary concentration, K. pneumoniae (Klebsiella pneumoniae): 10 mM

C#CCOC(=O)C1=C(C)NC(C)=C(C(=O)OCC#C)C1c1ccc[n+](CCCCCCCCCCCC)c1 [Compound 9]
LD50 at 24 h [1, 6]: 50 to 300 mg/kg
IC50 at 72 h [2, 7]: 1 to 4 µM
Boundary concentration, M. luteus (Micrococcus luteus): 0.0001 mM
Boundary concentration, S. cerevisiae [3]: 0.0001 mM
Boundary concentration, E. coli (Escherichia coli): 0.0001 mM
Boundary concentration, B. subtilis [4]: 0.01 mM
Boundary concentration, P. mirabilis (Proteus mirabilis): 0.01 mM
Boundary concentration, P. aeruginosa (Pseudomonas aeruginosa): 0.01 mM
Boundary concentration, K. pneumoniae (Klebsiella pneumoniae): 0.1 mM

CCCCCCCCCCCC[n+]1cccc(C2C(C(=O)OCC)=C(C)NC(C)=C2C(=O)OCC)c1 [Compound 3]
IC50 at 72 h [2, 7]: 37 ± 2 µM
Boundary concentration, M. luteus (Micrococcus luteus): 0.001 mM
Boundary concentration, S. cerevisiae [3]: 0.001 mM
Boundary concentration, E. coli (Escherichia coli): 0.01 mM
Boundary concentration, B. subtilis [4]: 0.01 mM
Boundary concentration, P. mirabilis (Proteus mirabilis): 0.001 mM
Boundary concentration, P. aeruginosa (Pseudomonas aeruginosa): 0.01 mM
Boundary concentration, K. pneumoniae (Klebsiella pneumoniae): 0.1 mM
IC50 [5]: 5 to 14 µM

C#CCN1C(C)=C(C(=O)OCC)C(c2ccc[n+](CCCCCCCCCCCC)c2)C(C(=O)OCC)=C1C [Compound 6]
LD50 at 24 h [1, 6]: 50 to 300 mg/kg
Boundary concentration, M. luteus (Micrococcus luteus): 0.0001 mM
Boundary concentration, S. cerevisiae [3]: 0.001 mM
Boundary concentration, E. coli (Escherichia coli): 0.001 mM
Boundary concentration, B. subtilis [4]: 0.0001 mM
Boundary concentration, P. mirabilis (Proteus mirabilis): 1 mM
Boundary concentration, P. aeruginosa (Pseudomonas aeruginosa): 0.01 mM
Boundary concentration, K. pneumoniae (Klebsiella pneumoniae): 0.1 mM
IC50 [5]: 5 to 14 µM
